Data on four compounds can be found in patent US8207224B2, “Preservatives based on carboxylic anhydrides” (LANXESS Deutchland GmbH, priority 2006, dated 2012).

Common to all, as to format: cell-based
The subject of one experiment is Saccharomyces cerevisiae. As to the kind of experiment: Sterilization test in contaminated apple juice against Saccharomyces cerevisiae. On Visual evaluation after 4 weeks: key: − = not fermented; + = fermented. The conditions noted are these: for Germ number after 24 h (carried out in duplicate): contact time 24 hours at 20° C. The protocol: (§1) Soft drinks were contaminated with the respective stated microorganisms. The active compound concentration required for disinfecting the beverages was determined by sterilization tests.
(§2) Nutrient Media: Yeast orange serum agar (from Oxoid CM657)
(§3) Substances: The substances used were employed neat or as ethanolic or butanolic solutions (for example 2.0% by volume) or suspensions. Dimethyl dicarbonate, Na benzoate, K sorbate, sorbic anhydride and benzoic anhydride were synthesized by known methods or were commercially available. The respective solutions were in each case freshly prepared (alcoholysis). Apparatus: 50 ml tissue culture flasks from Greiner, gauze compresses from Holthans, Thoma counting chamber from Brand.
(§4) As a matter of principle, sterile reagents and apparatus were used. In addition to sterile disposable articles, the required apparatus and reagents were sterilized by suitable measures before use. Sterilization measures were heat treatment in a drying cabinet (at least 8 hours at about 120° C.) or in an autoclave (at least 15 minutes at about 120° C.).
(§5) Before the test was carried out, the beverage substrates were filled into tissue culture flasks. In general, the amount of beverage was 40 ml. Filling was carried out under sterile conditions. At this point in time, it was also possible for the persistent preservatives to be introduced.
(§6) The cultures, which were grown under optimum conditions (in tissue culture flasks from Greiner; 50 ml, 25 cm^2 or in oblique agar tubes), were wetted with up to 30 ml (depending on the test germ) of NaCl solution (if appropriate with addition of about 3 drops of Tween 80), rinsed off or, using glass beads (depending on the germ), scrubbed off intensively and, if required, filtered. Alternatively, it was also possible to employ fluid cultures. Using a microscope and a Thoma chamber, it was possible to carry out a preliminary determination of the germ number. An accurate determination of the germ number of the germ solution used was carried out using the Koch inoculation plate method.
(§7) Depending on the given germ seed (for example 50-500 germs/ml of substrate), the appropriate volume of germ solution (original or dilution) were added and the sample was shaken intensively.
(§8) The doses of active compound, added as pure substance or as appropriate alcoholic solution or suspension in the case of dimethyl dicarbonate and the carboxylic anhydrides, were then added. For a period of about 20 seconds, the samples were immediately shaken intensively.
(§9) The beverage samples were stored at a cultivation temperature of 26° C.±2° C.
(§10) In the case of formerly clear beverages, clouding indicates contamination. In the case of cloudy fruit pulp-containing beverages, visual evaluation was not always possible. Accordingly, in these cases evaluation was carried out as a germ number determination in agar.
The tests were carried out as stated in Example 1.

For experiment [1], the system named is Mixture of different problem yeasts from a beverage filling unit. Kind of experiment: Sterilization test in contaminated apple juice against yeast mix. On Visual evaluation after 4 weeks: key: − = not fermented; + = fermented. Conditions: germ seed 56.000 cfu/ml. The protocol:
as §1, §2, §3, §4, §5, §6, §7, §8, §9, §10
The tests were carried out as Stated in Example 1.

Experiment [2] has the same test system. The experiment is described as above. The conditions noted are these: contact time 24 hours at 20° C., germ seed 56.000 cfu/ml.
[3] abbreviates: 100 mg/l, pH 3.5, apple juice, germ seed 56 000 cfu/ml.
The mark [4] stands for this setting: 150 mg/l, pH 3.5, apple juice, germ seed 56 000 cfu/ml.
[5] abbreviates: 150 mg/l, pH 6.0, apple juice, germ seed 56 000 cfu/ml.
[6] abbreviates: 250 mg/l, pH 3.5, apple juice, germ seed 56 000 cfu/ml.
The mark [7] stands for this setting: 250 mg/l, pH 6.0, apple juice, germ seed 56 000 cfu/ml.
[8] abbreviates: Table 2: 250 mg/l, apple juice, germ seed 56.000 cfu/ml.
Setting [9] is: 177 mg/l, pH 3.5, apple juice, germ seed 56 000 cfu/ml.
Setting [10] is: 177 mg/l, pH 6.0, apple juice, germ seed 56 000 cfu/ml.
[11] abbreviates: Table 2: 177 mg/l, apple juice, germ seed 56.000 cfu/ml.
Setting [12] is: Table 2: 50 mg/l, apple juice, germ seed 56.000 cfu/ml.
Where [13] appears, read: Table 2: 100 mg/l, apple juice, germ seed 56.000 cfu/ml.

“And” between values parts separate entries of the source, which are not always exact repeats. Equal entries are not always repeated. Where only a bound is given, the exact number is not on record here.

On to `O=C(OC(=O)c1ccccc1)c1ccccc1` [Benzoic anhydride, benzoic anhydride], for which the “Germ number after 24 h (carried out in duplicate)” value (“Germ number after 24 h” for short) with Saccharomyces cerevisiae (setting [3]) is less than 10; in the experiment with Saccharomyces cerevisiae (setting [4]), less than 10; with Saccharomyces cerevisiae (setting [5]) it was “about 10”; with Saccharomyces cerevisiae (setting [6]) it was less than 10; with Saccharomyces cerevisiae (setting [7]), less than 10. Besides, the “Visual evaluation after 4 weeks” value with Saccharomyces cerevisiae (setting [3]) is reported as “−”; with Saccharomyces cerevisiae (100 mg/l, pH 6.0, apple juice, germ seed 56 000 cfu/ml), “+”; in the experiment on Saccharomyces cerevisiae (setting [4]), “−”; with Saccharomyces cerevisiae (setting [5]), “+”; with Saccharomyces cerevisiae (setting [6]) it was “−”; in the experiment on Saccharomyces cerevisiae (setting [7]), “−”.
Take `COC(=O)OC(=O)OC` [Dimethyl dicarbonate, reference compound]: the “Visual evaluation after 4 weeks” value (in the experiment with Saccharomyces cerevisiae (setting [6]); with Saccharomyces cerevisiae (setting [7]); in the experiment with Saccharomyces cerevisiae (setting [8]); in experiment [1] (250 mg/l)) was “+” each time. The “Germ number after 24 h” value is less than 10 in the experiment on Saccharomyces cerevisiae (setting [8]); 6.8 × 10^6 and 5.7 × 10^6 in experiment [1] (250 mg/l, contact time 24 hours at 20° C.).
`O=C([O-])c1ccccc1.[Na+]` [Na benzoate, Sodium benzoate, reference compound]: the “Germ number after 24 h” value in experiment [2] (177 mg/l) was 1.3 × 10^5 and 1.1 × 10^5; with Saccharomyces cerevisiae (setting [9]), 6.8 × 10^5 and 5.3 × 10^5; with Saccharomyces cerevisiae (setting [10]) it was 2.6 × 10^6 and 2.2 × 10^6; in the experiment on Saccharomyces cerevisiae (setting [11]) it was 1.3 × 10^5 and 1.1 × 10^5. Besides, the “Visual evaluation after 4 weeks” value (in the experiment with Saccharomyces cerevisiae (setting [9]); with Saccharomyces cerevisiae (setting [10]); in the experiment with Saccharomyces cerevisiae (setting [11]); in experiment [1] (177 mg/l)) was “+” in each case.
As for `C/C=C/C=C/C(=O)OC(=O)/C=C/C=C/C` [Sorbic anhydride, sorbic anhydride], the “Germ number after 24 h” value was 2.6 × 10^5 and 1.8 × 10^5 in experiment [2] (50 mg/l); 9.2 × 10^4 and 9.4 × 10^4 in experiment [2] (100 mg/l); 985 and 1080 in experiment [2] (250 mg/l); less than 10 with Saccharomyces cerevisiae (setting [12]); less than 10 with Saccharomyces cerevisiae (setting [13]); less than 10 in the experiment with Saccharomyces cerevisiae (setting [8]). Further, the “Visual evaluation after 4 weeks” value was “−” in the experiment with Saccharomyces cerevisiae (setting [12]); “−” in the experiment on Saccharomyces cerevisiae (setting [13]); “−” in the experiment with Saccharomyces cerevisiae (setting [8]); “+” in experiment [1] (50 mg/l); “+” in experiment [1] (100 mg/l); “−” in experiment [1] (250 mg/l).
